What was measured:
[1] = tested on: 4T1 cells; assay: Detection of ROS production (CellROX Green, confocal); type: cell-based, murine; settings: 100 μM, positive control
Method: To measure the potential oxidative stress in living cells, as a consequence of the presence of the BMNPs, CelIROX® Green Reagent (ThermoFisher) was used following the protocol recommended by the manufacturer. Briefly, cells (approximately 20×10^3 4T1/well) were seeded on glass coverslips in 24-well plates. After their exposure to different concentrations (0.1, 1, 10, 100 μg/mL), in the presence and absence of a gradient magnetic field, of BMNPs for 4 hours, the cells were washed with PBS and CelIROX® Green Reagent was added to a final concentration of 5 μM in 300 μl of DMEM medium without serum. Then, the plate was incubated in the dark at 37° C. for 30 minutes. Menadione (100 μM) was used as a positive control. After the incubation time, the coverslips were washed with PBS pH 7.2, fixed with 4% paraformaldehyde in PBS, washed again and permeabilized with 0.1% Triton-X100 for 10 minutes. Finally, the coverslips were stained and mounted on specimen slides (Biosigma). […] Therefore, the emission of green fluorescence (at 485/520 nm) is stable and is produced after the DNA binding, and therefore its signal is mainly located in the nucleus and in the mitochondria. Fluorescence was detected using a Spectral Confocal Leica TCS SP2 AOBS microscope. […]

[2] = tested on: 4T1 cells; assay: Confocal analysis of DOXO internalization; type: cell-based, murine; settings: soluble drug, positive control
Method: Cells (approximately 20×10^3 4T1/well) were seeded on glass coverslips in 24-well plates and, after 24 h, soluble DOXO (as a positive control) or DOXO-BMNP suspensions were added. After incubation at 37° C. for different periods of time (30 seconds, 5 and 30 minutes) in the absence (−GMF) and in the presence (+GMF) of a gradient magnetic field, coverslips were washed with fresh PBS pH 7.2 and fixed with paraformaldehyde (2% wt in PBS). To minimize unspecific interactions and permeabilize cells, coverslips were washed with Tris-Buffered Saline (TBS) containing 5% Bovine Serum Albumin (BSA), 0.1% Triton X-100 and 5% got serum and then stained. In particular cytoskeletal actin microfilaments were stained with FITC-phalloidin (Sigma-Aldrich, excitation at 488 nm; emission at 500-535 nm) and nuclei were stained with TO-PRO-3 (1/70, Life Technologies; excitation at 633 nm; emission at 650-750 nm). DOXO was detected after excitation at 476 nm and emission at 575-630 nm. Fluorescence was detected using a Leica TCS SP2 AOBS Spectral Confocal Scanner microscope. Images were taken at 400× magnification. ImageJ software was used for analysis.

[3] = tested on: 4T1 tumors; assay: In vivo magnetic targeting and antitumor activity; set-up: species or system BALB/c mice; settings: day 15, 2 mg/kg DOXO i.v. x5
Excerpt: Female BALB/c mice were inoculated with 10^5 4T1 cells into a mammary gland fat pad. […] The 6 groups were intravenously injected and treated as follows: i) PBS (control), ii-iii) DOXO-BMNPs +/−gradient magnetic field, iv-v) BMNPs +/−gradient magnetic field, and vi) soluble DOXO. […] The magnetic field was applied by attaching a 10 mm in diameter×3 mm thick N42 neodymium magnet (1.8 kg pull, Magnet Expert Ltd) with 3MTM Vetbond™ tissue adhesive on the tumor site and keeping it attached for 1 hour after the injection. This neodymium magnet, with a magnetic anisotropy normal to the plane and a saturation magnetization of 800 emu/cc, could generate a direct current (d.c.) magnetic field of the order of 100 Oe a few millimeters from the surface. Therefore, the effect of the magnet is equivalent to the application of a local 100-Oe external d.c. magnetic field immediately after the administration of the nanoparticles. Throughout the study, body weight and tumor volumes (measured with caliper) were recorded every 3-4 days. Three days after the last injections (day 18), mice were euthanized, their weights, as well as, tumor weights were recorded and, then, tumors, hearts, livers, spleens, brains, lungs, and kidneys were collected for histology. Histological sections of the tumors were prepared for hematoxylin-eosin and Prussian blue staining to analyze particle biodistribution.

Row | ROS release [1] | Compound | internalization of DOXO in cell nuclei (confocal) [2] | tumor volume [3]
1 | clearly visible | CC1=CC(=O)c2ccccc2C1=O [Menadione] | – | –
2 | – | COc1cccc2c1C(=O)c1c(O)c3c(c(O)c1C2=O)C[C@@](O)(C(=O)CO)C[C@@H]3O[C@H]1C[C@H](N)[C@H](O)[C@H](C)O1 [soluble DOXO, doxorubicin] | detected only after 5 min | significantly reduced

From patent US20220143212A1, “MAMC-MEDIATED BIOMIMETIC NANOPARTICLES” (UNIVERSIDAD DE GRANADA, priority 2018, published 2022)
